Assay in all cases: biochemical
Holding throughout (parameters): KINOMEscan scanMAX competition binding, DNA-tagged kinases, qPCR read-out, percent control at 300 nM
A general note: Quantitative PCR measures a nucleic acid by following its amplification.

Experiment [1] deals with T1, LZK (Homo sapiens, UniProt O43283).
T1 construct: gene MAP3K13
T1 sequence (O43283 1-966): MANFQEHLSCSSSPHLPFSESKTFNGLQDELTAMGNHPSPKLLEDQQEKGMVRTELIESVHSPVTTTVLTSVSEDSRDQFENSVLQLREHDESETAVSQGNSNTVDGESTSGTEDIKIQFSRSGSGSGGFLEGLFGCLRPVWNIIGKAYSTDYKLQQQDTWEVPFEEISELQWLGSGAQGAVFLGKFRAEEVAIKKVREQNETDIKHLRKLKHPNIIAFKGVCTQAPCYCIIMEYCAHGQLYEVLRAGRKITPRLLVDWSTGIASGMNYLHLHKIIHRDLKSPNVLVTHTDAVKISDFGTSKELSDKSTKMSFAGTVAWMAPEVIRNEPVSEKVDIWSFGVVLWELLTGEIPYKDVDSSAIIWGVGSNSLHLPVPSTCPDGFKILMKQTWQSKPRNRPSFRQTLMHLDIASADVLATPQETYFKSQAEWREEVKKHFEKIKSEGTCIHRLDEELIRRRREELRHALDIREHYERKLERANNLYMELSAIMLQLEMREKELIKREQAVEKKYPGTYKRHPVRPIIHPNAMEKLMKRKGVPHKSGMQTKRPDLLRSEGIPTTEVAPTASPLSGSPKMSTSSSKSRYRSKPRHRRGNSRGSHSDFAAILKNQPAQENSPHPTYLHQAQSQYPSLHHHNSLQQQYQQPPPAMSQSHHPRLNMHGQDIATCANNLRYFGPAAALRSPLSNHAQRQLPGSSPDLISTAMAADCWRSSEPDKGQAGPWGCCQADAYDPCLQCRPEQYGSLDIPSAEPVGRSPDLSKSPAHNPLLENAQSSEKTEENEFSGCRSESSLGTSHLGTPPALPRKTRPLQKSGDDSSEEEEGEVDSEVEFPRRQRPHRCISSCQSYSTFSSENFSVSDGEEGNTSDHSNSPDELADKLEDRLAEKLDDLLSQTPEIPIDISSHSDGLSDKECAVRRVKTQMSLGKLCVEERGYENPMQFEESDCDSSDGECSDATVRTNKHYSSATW

Experiment [2] deals with HIPK3 (Homo sapiens, UniProt Q9H422).
In experiment [3] the target is EPHA2 (Homo sapiens, UniProt P29317).
Experiment [4] addresses T2, RIOK3 (Homo sapiens, UniProt O14730).
T2 sequence (O14730 1-519): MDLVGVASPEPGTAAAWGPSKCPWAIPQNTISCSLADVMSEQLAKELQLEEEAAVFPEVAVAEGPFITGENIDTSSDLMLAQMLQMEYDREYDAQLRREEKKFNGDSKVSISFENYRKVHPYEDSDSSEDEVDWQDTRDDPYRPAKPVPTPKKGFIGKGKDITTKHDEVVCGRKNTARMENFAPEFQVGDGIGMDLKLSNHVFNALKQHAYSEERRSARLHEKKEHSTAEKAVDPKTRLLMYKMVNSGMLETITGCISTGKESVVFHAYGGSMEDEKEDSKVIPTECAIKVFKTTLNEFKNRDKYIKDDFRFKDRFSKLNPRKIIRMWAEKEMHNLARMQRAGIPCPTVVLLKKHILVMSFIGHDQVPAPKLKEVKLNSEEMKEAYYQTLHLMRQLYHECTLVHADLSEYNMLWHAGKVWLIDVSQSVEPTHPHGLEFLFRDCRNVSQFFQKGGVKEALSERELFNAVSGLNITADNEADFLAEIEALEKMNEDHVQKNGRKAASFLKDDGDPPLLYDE

Experiment [5] concerns the target T3, RIPK4 (Homo sapiens, UniProt P57078).
T3 sequence (P57078 1-832): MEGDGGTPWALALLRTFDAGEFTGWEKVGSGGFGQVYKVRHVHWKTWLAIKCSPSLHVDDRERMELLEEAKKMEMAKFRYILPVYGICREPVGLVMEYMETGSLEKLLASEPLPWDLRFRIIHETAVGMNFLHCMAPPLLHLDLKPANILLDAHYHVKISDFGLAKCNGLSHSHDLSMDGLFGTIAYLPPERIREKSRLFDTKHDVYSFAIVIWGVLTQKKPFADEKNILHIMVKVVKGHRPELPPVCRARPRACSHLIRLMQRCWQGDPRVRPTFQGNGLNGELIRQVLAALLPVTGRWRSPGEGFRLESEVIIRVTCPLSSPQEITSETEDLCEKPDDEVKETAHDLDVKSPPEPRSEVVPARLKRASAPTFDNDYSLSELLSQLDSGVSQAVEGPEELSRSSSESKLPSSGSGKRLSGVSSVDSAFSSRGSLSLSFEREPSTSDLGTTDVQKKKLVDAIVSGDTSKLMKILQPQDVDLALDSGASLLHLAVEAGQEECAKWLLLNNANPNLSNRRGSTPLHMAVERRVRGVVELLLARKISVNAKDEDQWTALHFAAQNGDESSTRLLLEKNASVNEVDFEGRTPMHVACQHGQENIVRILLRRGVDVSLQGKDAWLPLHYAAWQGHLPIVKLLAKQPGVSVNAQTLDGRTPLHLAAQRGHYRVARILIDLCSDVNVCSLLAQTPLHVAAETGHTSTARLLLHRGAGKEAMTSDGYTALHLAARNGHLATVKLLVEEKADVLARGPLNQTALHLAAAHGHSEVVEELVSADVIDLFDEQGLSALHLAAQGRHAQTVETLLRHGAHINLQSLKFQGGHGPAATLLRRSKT

The target of experiment [6] is TNK2 (Homo sapiens, UniProt Q07912).
Experiment [7] concerns the target PIM2 (Homo sapiens, UniProt Q9P1W9).
Where [8] appears, read: read-out: Percent control / Acalabrutinib.
The mark [9] stands for this setting: read-out: Percent control / Ibrutinib.
Setting [10] is: read-out: Percent control / Tirabrutinib.
The mark [11] stands for this setting: read-out: Percent control / Zanubrutinib.

Read-outs that look alike come from different tables or passages of the source.

TNK2, sequence (Q07912 whole entry): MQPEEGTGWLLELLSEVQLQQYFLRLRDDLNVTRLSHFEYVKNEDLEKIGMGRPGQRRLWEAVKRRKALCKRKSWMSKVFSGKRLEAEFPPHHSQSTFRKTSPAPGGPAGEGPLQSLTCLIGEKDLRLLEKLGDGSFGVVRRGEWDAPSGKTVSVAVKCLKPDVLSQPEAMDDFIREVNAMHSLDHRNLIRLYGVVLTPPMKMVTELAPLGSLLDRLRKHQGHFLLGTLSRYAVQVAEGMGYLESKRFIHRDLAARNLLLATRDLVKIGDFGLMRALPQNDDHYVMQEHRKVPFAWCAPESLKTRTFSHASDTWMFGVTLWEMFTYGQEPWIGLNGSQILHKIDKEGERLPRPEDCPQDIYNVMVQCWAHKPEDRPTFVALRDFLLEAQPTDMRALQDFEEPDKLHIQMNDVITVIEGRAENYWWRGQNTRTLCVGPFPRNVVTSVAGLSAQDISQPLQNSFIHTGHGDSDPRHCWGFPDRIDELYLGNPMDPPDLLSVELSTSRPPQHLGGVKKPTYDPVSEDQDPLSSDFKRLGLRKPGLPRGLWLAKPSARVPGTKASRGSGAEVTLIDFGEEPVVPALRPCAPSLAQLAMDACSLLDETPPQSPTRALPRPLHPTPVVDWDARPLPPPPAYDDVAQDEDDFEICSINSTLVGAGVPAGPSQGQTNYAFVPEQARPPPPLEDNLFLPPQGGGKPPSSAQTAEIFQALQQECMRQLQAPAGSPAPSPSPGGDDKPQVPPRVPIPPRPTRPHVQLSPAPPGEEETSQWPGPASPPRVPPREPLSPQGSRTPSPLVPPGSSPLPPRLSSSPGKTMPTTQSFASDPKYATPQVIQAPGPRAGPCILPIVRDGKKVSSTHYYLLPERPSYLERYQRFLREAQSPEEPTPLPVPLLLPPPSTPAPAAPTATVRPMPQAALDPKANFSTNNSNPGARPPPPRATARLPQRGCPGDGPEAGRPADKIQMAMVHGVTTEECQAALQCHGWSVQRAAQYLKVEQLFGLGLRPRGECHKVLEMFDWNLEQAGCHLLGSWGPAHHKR
PIM2, sequence (Q9P1W9 whole entry): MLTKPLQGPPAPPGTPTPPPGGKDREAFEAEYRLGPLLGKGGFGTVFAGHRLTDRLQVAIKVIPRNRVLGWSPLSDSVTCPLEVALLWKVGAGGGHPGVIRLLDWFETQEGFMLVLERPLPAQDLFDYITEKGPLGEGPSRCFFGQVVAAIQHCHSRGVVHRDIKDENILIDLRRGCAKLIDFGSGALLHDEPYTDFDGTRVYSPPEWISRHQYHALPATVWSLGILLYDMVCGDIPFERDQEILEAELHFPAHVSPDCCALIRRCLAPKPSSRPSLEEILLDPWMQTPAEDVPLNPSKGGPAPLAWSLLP
EPHA2, sequence (P29317 whole entry): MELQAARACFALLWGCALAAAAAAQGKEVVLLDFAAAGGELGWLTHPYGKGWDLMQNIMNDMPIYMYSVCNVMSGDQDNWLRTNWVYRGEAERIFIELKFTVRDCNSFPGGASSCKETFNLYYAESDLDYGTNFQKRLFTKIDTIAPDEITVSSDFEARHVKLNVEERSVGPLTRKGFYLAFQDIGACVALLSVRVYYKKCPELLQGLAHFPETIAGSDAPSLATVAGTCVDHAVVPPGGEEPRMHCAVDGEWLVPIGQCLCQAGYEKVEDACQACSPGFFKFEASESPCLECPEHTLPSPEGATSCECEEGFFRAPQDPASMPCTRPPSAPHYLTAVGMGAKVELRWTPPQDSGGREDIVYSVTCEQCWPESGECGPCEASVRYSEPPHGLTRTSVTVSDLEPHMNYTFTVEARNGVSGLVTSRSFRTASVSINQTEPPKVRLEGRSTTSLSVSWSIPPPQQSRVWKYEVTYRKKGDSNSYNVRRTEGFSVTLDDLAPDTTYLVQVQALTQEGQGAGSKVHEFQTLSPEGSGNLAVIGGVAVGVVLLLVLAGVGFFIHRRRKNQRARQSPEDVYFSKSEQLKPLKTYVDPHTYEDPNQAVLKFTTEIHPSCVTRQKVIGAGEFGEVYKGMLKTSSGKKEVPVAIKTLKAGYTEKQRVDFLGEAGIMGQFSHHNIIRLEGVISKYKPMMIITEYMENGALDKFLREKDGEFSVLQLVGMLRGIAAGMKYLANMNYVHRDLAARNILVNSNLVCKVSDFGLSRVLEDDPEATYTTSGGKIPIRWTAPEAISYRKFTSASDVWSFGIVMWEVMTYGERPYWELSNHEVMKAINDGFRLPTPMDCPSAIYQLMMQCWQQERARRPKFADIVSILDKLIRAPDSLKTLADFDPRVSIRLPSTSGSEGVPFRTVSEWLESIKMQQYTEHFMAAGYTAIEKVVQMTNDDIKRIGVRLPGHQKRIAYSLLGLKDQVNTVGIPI
HIPK3, sequence (Q9H422 whole entry): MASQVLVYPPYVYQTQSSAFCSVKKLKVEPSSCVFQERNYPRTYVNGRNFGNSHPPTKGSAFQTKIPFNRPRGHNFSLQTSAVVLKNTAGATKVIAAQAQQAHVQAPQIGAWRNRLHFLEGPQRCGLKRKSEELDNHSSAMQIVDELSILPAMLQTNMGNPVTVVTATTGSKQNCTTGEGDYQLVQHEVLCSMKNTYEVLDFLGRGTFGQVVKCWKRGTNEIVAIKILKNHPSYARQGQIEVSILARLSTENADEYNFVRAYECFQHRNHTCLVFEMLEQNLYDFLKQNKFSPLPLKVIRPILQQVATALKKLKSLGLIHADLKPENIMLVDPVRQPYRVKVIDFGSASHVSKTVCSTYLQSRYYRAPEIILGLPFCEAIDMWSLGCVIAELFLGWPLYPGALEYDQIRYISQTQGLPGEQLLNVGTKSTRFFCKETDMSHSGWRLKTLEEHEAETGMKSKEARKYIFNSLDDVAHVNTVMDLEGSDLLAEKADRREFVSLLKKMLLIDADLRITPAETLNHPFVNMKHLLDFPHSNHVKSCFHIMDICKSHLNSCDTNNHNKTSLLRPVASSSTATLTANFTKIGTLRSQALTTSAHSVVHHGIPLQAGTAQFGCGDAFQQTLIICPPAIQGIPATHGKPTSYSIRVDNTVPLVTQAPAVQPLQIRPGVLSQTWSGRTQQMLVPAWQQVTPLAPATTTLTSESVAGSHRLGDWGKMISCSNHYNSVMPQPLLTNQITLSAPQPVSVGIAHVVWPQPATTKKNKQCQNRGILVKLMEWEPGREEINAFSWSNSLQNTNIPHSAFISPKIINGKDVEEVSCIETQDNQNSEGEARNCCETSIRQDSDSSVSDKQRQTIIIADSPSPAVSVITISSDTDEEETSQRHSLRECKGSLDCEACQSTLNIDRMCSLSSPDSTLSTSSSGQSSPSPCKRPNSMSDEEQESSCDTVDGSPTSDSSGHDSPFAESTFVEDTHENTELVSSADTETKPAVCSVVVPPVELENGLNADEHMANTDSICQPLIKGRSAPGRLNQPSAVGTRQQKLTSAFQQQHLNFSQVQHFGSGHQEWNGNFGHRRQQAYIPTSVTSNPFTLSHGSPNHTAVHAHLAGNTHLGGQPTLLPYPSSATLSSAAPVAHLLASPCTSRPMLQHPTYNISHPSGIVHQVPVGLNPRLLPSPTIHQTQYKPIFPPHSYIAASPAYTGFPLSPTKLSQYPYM

In the case of `CC#CC(=O)N1CCC[C@H]1c1nc(-c2ccc(C(=O)Nc3ccccn3)cc2)c2c(N)nccn12` [Acalabrutinib], the remaining binding at 0.3 µM is 85% in experiment [1] (setting [8]); 99% in experiment [2] (setting [8]); 94% in experiment [3] (setting [8]); 90% in experiment [4] (setting [8]); 85% in experiment [5] (setting [8]).
As for `C=CC(=O)N1CCC[C@@H](n2nc(-c3ccc(Oc4ccccc4)cc3)c3c(N)ncnc32)C1` [Ibrutinib], the remaining binding at 0.3 µM in experiment [1] (setting [9]) came to 79%; in experiment [6] (setting [9]), 48%; in experiment [2] (setting [9]), 51%; in experiment [7] (setting [9]), 96%; in experiment [4] (setting [9]), 89%; in experiment [5] (setting [9]) it was 76%.
With `CC#CC(=O)N1CC[C@@H](n2c(=O)n(-c3ccc(Oc4ccccc4)cc3)c3c(N)ncnc32)C1` [Tirabrutinib], the remaining binding at 0.3 µM in experiment [1] (setting [10]) came to 63%; in experiment [6] (setting [10]), 93%; in experiment [2] (setting [10]), 78%; in experiment [3] (setting [10]), 93%; in experiment [7] (setting [10]) it was 99%; in experiment [5] (setting [10]), 70%.
In the case of `C=CC(=O)N1CCC([C@@H]2CCNc3c(C(N)=O)c(-c4ccc(Oc5ccccc5)cc4)nn32)CC1` [Zanubrutinib], the remaining binding at 0.3 µM in experiment [1] (setting [11]) is 93%; in experiment [6] (setting [11]), 90%; in experiment [2] (setting [11]) it was 97%; in experiment [3] (setting [11]), 67%; in experiment [7] (setting [11]) it was 96%; in experiment [4] (setting [11]), 100%. For the same compound, the remaining binding at 0.3 µM in experiment [5] (setting [11]) was found to be 91%.

Values taken from article PMC10004634 (PLOS ONE, 2023).
